Test results as given in ChEMBL document CHEMBL4371020, “Synthesis and biological evaluation of 1H-pyrrolo[2,3-d]pyrimidine-1,2,3-triazole derivatives as novel anti-tubercular agents” (2019).
Converted amounts (≈) assume the structure as drawn.

System: Mycobacterium tuberculosis
Test: Antimicrobial activity against Mycobacterium tuberculosis H37Rv after 7 days by microplate alamar blue assay
Type: functional
Conditions: 168 h

Row | Structure (SMILES) | MIC [µg/mL]
1 | c1ccc(-c2cc(Cn3cc(Cn4ccc5cncnc54)nn3)on2)cc1 | 0.78 (≈ 2.18 µM)
2 | Fc1ccc(-c2cc(Cn3cc(Cn4ccc5cncnc54)nn3)on2)cc1 | 0.78 (≈ 2.08 µM)
3 | c1ccc(Sc2ccccc2-n2cc(Cn3ccc4cncnc43)nn2)cc1 | 6.25 (≈ 16.3 µM)
4 | Fc1ccc(Cn2cc(Cn3ccc4cncnc43)nn2)cc1 | > 25
5 | O=[N+]([O-])c1ccc(Cn2cc(Cn3ccc4cncnc43)nn2)cc1 | > 25
6 | Brc1ccccc1Cn1cc(Cn2ccc3cncnc32)nn1 | > 25
7 | COc1cccc(-n2cc(Cn3ccc4cncnc43)nn2)c1[N+](=O)[O-] | 25 (≈ 71.2 µM)
8 | Fc1ccc(Oc2ccc(Cn3cc(Cn4ccc5cncnc54)nn3)cc2)cc1 | 3.12 (≈ 7.79 µM)
9 | O=c1oc2ccccc2cc1-n1cc(Cn2ccc3cncnc32)nn1 | 3.12 (≈ 9.06 µM)
10 | COc1ccc(Cn2cc(Cn3ccc4cncnc43)nn2)cc1 | > 25
11 | Oc1ccccc1-n1cc(Cn2ccc3cncnc32)nn1 | 6.25 (≈ 21.4 µM)
12 | CCOC(=O)/C=C/Cn1cc(Cn2ccc3cncnc32)nn1 | > 25
13 | c1ccc(Cn2cc(Cn3ccc4cncnc43)nn2)cc1 | > 25
14 | Fc1ccccc1Cn1cc(Cn2ccc3cncnc32)nn1 | > 25
15 | Clc1ccc(Cn2cc(Cn3ccc4cncnc43)nn2)cc1 | 3.12 (≈ 9.61 µM)
16 | C=CCn1cc(Cn2ccc3cncnc32)nn1 | 6.25 (≈ 26 µM)
17 | O=[N+]([O-])c1ccc(-n2cc(Cn3ccc4cncnc43)nn2)cc1 | > 25
18 | Cc1onc(-c2ccccc2)c1Cn1cc(Cn2ccc3cncnc32)nn1 | 6.25 (≈ 16.8 µM)
19 | Clc1ccc(Oc2ccccc2)cc1-n1cc(Cn2ccc3cncnc32)nn1 | 6.25 (≈ 15.5 µM)
20 | COC(=O)CCn1cc(Cn2ccc3cncnc32)nn1 | 1.56 (≈ 5.45 µM)
21 | c1ccc(-c2cc(Cn3cc(Cn4ccc5cncnc54)nn3)cc(-c3ccccc3)n2)cc1 | 6.25 (≈ 14.1 µM)
22 | Fc1cccc(-n2cc(Cn3ccc4cncnc43)nn2)c1 | > 25
23 | Brc1ccc(Cn2cc(Cn3ccc4cncnc43)nn2)cc1 | > 25
24 | Clc1ccc(-n2cc(Cn3ccc4cncnc43)nn2)cc1 | 25 (≈ 80.5 µM)
25 | O=C(O)c1cn(C2CC2)c2cc(N3CCNCC3)c(F)cc2c1=O [CIPROFLOXACIN] | 1.56 (≈ 4.71 µM)
26 | CC[C@@H](CO)NCCN[C@@H](CC)CO [ETHAMBUTOL] | 1.56 (≈ 7.64 µM)
27 | NNC(=O)c1ccncc1 [ISONIAZID] | 0.1 (≈ 0.729 µM)
28 | CO[C@H]1/C=C/O[C@@]2(C)Oc3c(C)c(O)c4c(O)c(c(/C=N/N5CCN(C)CC5)c(O)c4c3C2=O)NC(=O)/C(C)=C\C=C\[C@H](C)[C@H](O)[C@@H](C)[C@@H](O)[C@@H](C)[C@H](OC(C)=O)[C@@H]1C [RIFAMPIN] | 0.2 (≈ 0.243 µM)
